Measured values taken from patent US20200352906A1, “Heterobicyclic Carboxylic Acids for Treating Cancer or Inflammatory Diseases” (Shenzhen Ionova Life Science Co., Ltd., priority 2018, published 2020).

Tests used:
[1] = system: arthritis mice (AIA model); assay: In vivo anti-inflammatory activity, AIA arthritis model
Procedure: Male Lewis Rates of 8-10 weeks old were fed with fixed amount of foods and free water at 20±2° C., under light in the 12-hour light and 12-hour darkness cycle and with the humidity of 45-70%. All mice were provided adjusted living for three days before they were used in test. 56 of such mice were divided into 7 groups with 8 mice in each group. One group was a control group and received only 1% CMCNa solution; one group was a model group and also received only 1% CMCNa solution; one group was a positive group and received Celecoxib at 18 mg/kg, and the other four groups received solutions of tested compound at the 1 mg/kg, 3 mg/kg, 10 mg/kg and […] dosages respectively.
1% CMC-Na was prepared with 1.00277 g of CMC-Na in 100 mL distilled water, heated with a 60° C. water bath until CMC-Na fully dissolved.
18 mg/kg Celecoxib capsule: 18.09 mg Celecoxib was placed into a grinder into which 10 mL 1% CMC-Na solution was added slowly. The mixture was ground until Celecoxib fully dissolved.
10 mg/kg C-003 solution: 10.08 mg of a tested compound (4-(1-{[2-Methyl-4-(4-trifluoromethyl-benzyl)-4H-thieno[3,2-b]pyrrole-3-carbonyl]-amino}-cyclopropyl)-benzoic acid diethanolamino salt, which is referred to hereinafter as INV-1120 diethanolamino salt) was added into a grinder, into which 10 mL 1% CMC-Na solution was slowly added until INV-1120 diethanolamino salt fully dissolved.
30 mg/kg INV-1120 solution: 30.3 mg of INV-1120 diethanolamino salt was added into a grinder, into which 10 mL 1% CMC-Na solution was slowly added until INV-1120 diethanolamino salt fully dissolved.
1 mg/kg INV-1120 was prepared by mixing 1.0 mL of 10 mg/kg INV-1120 diethanolamino salt solution with 9 mL 1% CMC-Na.
3 mg/kg INV-1120 was prepared by mixing 1.0 mL of 30 mg/kg INV-1120 diethanolamino salt solution with 9 mL 1% CMC-Na.
After the mice were subject to Anesthesia, they were cleaned with medical alcohol at their right feet. The mice in the control group were administered with 50 uL PBS, and the mice of the other groups were treated at the right feet with 50 uL CDA solution. One day before the establishment of the model, the basic size (volume) of each mice was measured, the date of the model establishment was D1, test compound was administered at 1 mL/100 g to the stomach starting on D13 daily for 12 days (ending on D24).
The mice were examined and photos were taken every three days for their water intakes, food intakes, and weights; every four days for their abilities to withstand weight at their rear feet; every three days for the swelling volumes and swelling thickness and temperatures of their feet, as well as their behaviors.

B16F10 melanoma = assay: In vivo pharmacodynamic test on growth of B16F10 melanoma; set-up: species or system mice; details: 90 mg/kg/day, after 8 days of treatment, p<0.001 vs control
Procedure: (§1) B16F10 (1×10^6 cells) were injected subcutaneously into the mid-dorsum of 6-week-old male C57BL/6 mice (The Jackson Laboratory, Bar Harbor, Me.) at 100 μL/mouse. Mice were systemically treated with Compound 1 (INV-1120, 90 mg/kg/day), anti-PD1 (200 ug Q 3 days), INV-1120 (90 mg/kg/day) and anti-PD1 (200 ug Q 3 days), or vehicle (0.45% methylcellulose) in a total volume of 100 μL via orally by gavage. Treatment initiated on day 10 post-tumor cell injection, when tumors reached approximately 100 mm^3 to 116 mm^3. Tumor size was measured by caliper (width^2×length×0.52=mm^3).

[2] = system: MC38 murine colon adenocarcinoma; assay: In vivo pharmacodynamic test on subcutaneous murine colon adenocarcinoma (MC38); set-up: species or system mice; details: 60 mg/kg/day, after 15 days of treatment, p<0.0001 vs control
Procedure: All animal studies were reviewed and approved by the Animal Care and Use Committee of Beth Israel Deaconess Medical Center, Boston, Mass. Animals were housed at a maximum of 5 animals per cage in a pathogen-free facility with unlimited access to sterile water and chow. Daily welfare evaluations and animal sacrifices were carried out according to the Committee guidelines. MC38 mouse colon adenocarcinoma cells (Kerafast, Boston, Mass., USA) were cultured in DMEM that was supplemented with 10% FBS, 1% GPS, 0.1 mM nonessential amino acids (MilliporeSigma), 1 mM sodium pyruvate (MilliporeSigma), 10 mM Hepes (MilliporeSigma), and […] gentamycin sulfate (MilliporeSigma). Adherent cells were trypsinized, pelleted, counted by hemocytometer, and injected into mice at 1×10^6 cells/mL in PBS.
as §1, with “Cells were” for “B16F10 (1×10^6 cells) were”, “(INV-1120, 60” for “(INV-1120, 90”, “INV-1120 (60” for “INV-1120 (90”, “approximately […]” for “approximately 100”, “to 224” for “to 116”

Lewis lung carcinoma = assay: In vivo pharmacodynamic test on growth of LLC (Lewis Lung Cancer); set-up: species or system mice; details: 90 mg/kg/day, after 9 days of treatment, p<0.01 vs control
Procedure: as §1, with “LLC (1×10^6” for “B16F10 (1×10^6”, “with INV-1120 (90” for “with Compound 1 (INV-1120, 90”, “initiated” for “initiated on day 10 post-tumor cell injection,”, “approximately 249” for “approximately 100”, “to 297” for “to 116”

[3] = system: colon cancer CT26 transplanted tumor; assay: In vivo pharmacodynamic test on growth of colon cancer CT26 transplanted tumor in mice
Procedure: CT26 tumor cell line was maintained in vitro as monolayer culture in RPMI-1640 Media supplemented with 10% heat inactivated fetal calf serum at 37° C. in an atmosphere of 5% CO2 in air. The tumor cells were routinely sub-cultured twice weekly by trypsin-EDTA treatment, not to exceed 4-5 passages. The cells growing in an exponential growth phase were harvested and counted for tumor inoculation.
Each mouse was inoculated subcutaneously on the right lower flank with the single cell suspension of 95% viable tumor cells (3×10^5) in 0.1 mL of serum-free RPMI 1640 Media for tumor development. Each mouse was administered with a test compound of this invention when mean tumor size reached approximately 100 mm^3. Each group consisted of 6 mice. The mice were randomized to different treatment groups as shown in the table under ‘Groups and Treatment’. The mice were lightly anesthetized before implantation. Care was taken to ensure subcutaneous delivery of cells by lifting up the fold of skin with sterilized forceps and injecting cells. Any tumors that completely or partially grew intradermally (ID) or intramuscularly (IM) were not used.
CT26 cells were maintained in RPMI 1640 medium supplemented with 10% FBS at 37° C. and 5% CO2 atmosphere. Cell detachment was obtained using standard trypsinization methods, quantification of cell numbers and viability information using the NC-200 automated cell counter. Compound 1 (INV-1121) was thoroughly suspended in 0.5% methyl cellulose (MC) by sonication at 4° C. for 15 min before oral administration (p.o.) to animals. BALB/c mice were injected subcutaneously (s.c.) with live 1×10^5 […]. Mice developed tumors of approximately 36 mm^3 in 5 days. CT26 tumor-bearing mice were randomized and mapped into 5 groups of 10 mice each: group A received vehicle (0.5% MC); group B received 0.1 mg/kg of Compound 1; group C received 1 mg/kg of Compound 1, group D received 25 mg/kg of Compound 1; and group E received 150 mg/kg of Compound 1. All treatments were give Compound 1 p.o. daily for 21 consecutive days. Tumor volumes and body weights were measured twice weekly. Study was terminated 27 days after tumor cell injection. Tumor volumes were expressed as mean: t SEM. Tumor volume differences among treated mouse groups on day 27 were analyzed by the one-way ANOVA followed by Tukey's test. P<0.05 values were considered significant.
For routine monitoring, all study animals were monitored not only tumor growth but also behavior such as mobility, food and water consumption (by cage side checking only), body weight (BW), eye/hair matting and any other abnormal effect. All mortality and/or abnormal clinical signs were recorded.
Body weights of all animals are measured twice/week throughout the study. The measurement dates will specify as study design. Body weight change, expressed in %, was calculated using the following formula:
BW change (%)=((BWDay X−BWDay 0)/BWDay 0)×100
The measurement of tumor size was conducted twice/week with a caliper and the tumor volume (mm3) will be estimated using the formula: TV=a×b 2/2, where “a” and “b” is long and short diameters of a tumor, respectively. The TVs were used for calculation of the tumor growth inhibition (TGI, an indicator of antitumor effectiveness) value using the formula: TGI=(1−T/C)×100%, where “T” and “C” is the mean relative volumes (% tumor growth) of the tumors in the treated and the control groups, respectively. The experiment was terminated when the mean tumor volume exceeded 2000 mm3 or severe body weight loss.

[4] = Example 6, studies as described in Example 5, compared with Example 5
[5] = vs animals without administration of tested compounds

## Cc1sc2ccn(Cc3ccc(C(F)(F)F)cc3)c2c1C(=O)NC1(c2ccc(C(=O)O)cc2)CC1.NC(CO)(CO)CO [4-(1-{[2-Methyl-4-(4-trifluoromethyl-benzyl)-4H-thieno[3,2-b]pyrrole-3-carbonyl]-amino}-cyclopropyl)-benzoic acid tris(hydroxymethyl)aminomethane salt]
[1]; [4]
  balancing or coordination ability after treatment: better balancing or coordination ability
  reduction of swelling on the arthritis feet: even more effective reduction of swelling

## Cc1sc2ccn(Cc3ccc(C(F)(F)F)cc3)c2c1C(=O)NC1(c2ccc(C(=O)O)cc2)CC1 [INV-1120, 4-(1-{[2-Methyl-4-(4-trifluoromethyl-benzyl)-4H-thieno[3,2-b]pyrrole-3-carbonyl]-amino}-cyclopropyl)-benzoic acid]
B16F10 melanoma
  inhibition of primary melanoma growth vs control: inhibited primary 16F10 melanoma growth
[2]
  inhibition of primary tumor growth vs control: inhibited primary MC38 murine colon adenocarcinoma
Lewis lung carcinoma
  inhibition of primary Lewis lung carcinoma growth vs control: inhibited primary Lewis lung carcinoma growth

## Cc1sc2ccn(Cc3ccc(C(F)(F)F)cc3)c2c1C(=O)NC1(c2ccc(C(=O)O)cc2)CC1.OCCNCCO [INV-1120 diethanolamino salt, 4-(1-{[2-Methyl-4-(4-trifluoromethyl-benzyl)-4H-thieno[3,2-b]pyrrole-3-carbonyl]-amino}-cyclopropyl)-benzoic acid diethanolamino salt]
[1]; 1, 3, 10 and 40 mg/kg to the stomach daily D13-D24, FIG. 5
  temperatures of the feet: had effect in lowering the temperatures
[1]; 1, 3, 10 and 40 mg/kg to the stomach daily D13-D24, FIG. 6
  swelling (volumes and thickness) of the feet: had effect in lowering the temperatures and swelling (both volumes and thickness)
[1]; mouse, in vivo
  behavior patterns (e.g., balancing capability): improved behavior patterns
[1]; [5]
  ability to withstand weight (rear feet): greater weight gains and ability to withstand weight
  weight gains: greater weight gains

## O=C(O)c1ccc(C2(NC(=O)c3csc4ccn(Cc5ccc(C(F)(F)F)cc5)c34)CC2)cc1 [INV-1121]
[3]; 0.1 mg/kg p.o. daily
  tumor growth inhibition: some inhibition was observed, but without statistical significance
[3]; 1.0 mg/kg p.o. daily
  tumor growth inhibition: some inhibition was observed, but without statistical significance
[3]; 25 mg/kg p.o. daily
  anti-tumor activity: significant and comparable anti-tumor activity
[3]; 150 Mg/kg p.o. daily
  anti-tumor activity: significant and comparable anti-tumor activity
[3]; all doses tested, 0.1-150 mg/kg p.o. daily
  gross toxicity judged from animal body weight and overall animal behavior: None of the doses tested showed gross toxicity
[3]; daily oral administration, range 0.1 mg/kg-150 mg/kg, 21 consecutive days, FIG. 1
  tumor growth inhibition, dose dependence: inhibited the tumor growth in a dose-dependent manner
